These results are taken from PubChem BioAssay AID1259334 (Broad Institute, 2017).

SMILES strings stand for the structures. The source made the active and inactive calls. Rule as the data show it: active = AC50 below about 11 µM.

The test system of this assay is B cell line, TNFa signaling counterscreen reporter. Put plainly: TNFa pathway inhibition counter-screen, B-lineage cells – dose response (AID 1259334).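 Also: cells stimulated with TNFa after compound preincubation.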
As for `CC(=O)OC1CCC2(C)C(CCC3C4CC=C(C(C)=O)C4(C)OC(=O)CC32)C1` (centres undefined), the AC50 was 1.65 µM.

`COc1ccc(/C=C/C(=O)Nc2ccccc2C(=O)O)cc1OC`: the AC50 is 8.81 µM.

Turning to `O=S(c1ccccc1O)S(=O)c1ccccc1O` (centres undefined), the AC50 was > 20 µM (inactive).

With `CC1CC(C)C(=O)C(C(CC2CC(=O)NC(=O)C2)OC(=O)CC(=O)c2ccccc2)C1` (centres undefined), the AC50 is 2.17 µM.

On to `OC1(c2ccc(Cl)c(C(F)(F)F)c2)CCN(CCCC(c2ccc(F)cc2)c2ccc(F)cc2)CC1`, for which the AC50 was 8.99 µM.

With `COc1ccc(-c2cc(-c3ccccc3)c(C#N)c(S(C)=O)n2)cc1` (centres undefined), the half-maximal activity concentration (AC50) was 1.53 µM.

Regarding `Cn1cnc(CCNC(=O)C[C@@H]2CC[C@@H]3[C@H](COC[C@@H](O)CN3C(=O)Nc3ccc(C(F)(F)F)cc3)O2)c1`, the concentration at half-maximal activity (AC50) was 9.53 µM.

With `CC1=CC2OC3CC4OC(=O)C=CC=CC(C(C)O)OCC(O)C5(C)OC5C(=O)OCC2(CC1O)C4(C)C31CO1` (centres undefined), the concentration at half-maximal activity (AC50) was 0.0273 µM.

In the case of `Clc1ccc(COC(Cn2ccnc2)c2ccc(Cl)cc2Cl)c(Cl)c1` (centres undefined), the half-maximal activity concentration (AC50) was 8.2 µM.

On to `CC(C)Cc1ccc(C(C)/C=C2/CCC(CN3CCCCC3)C2=O)cc1` (centres undefined), for which the AC50 was 8.62 µM.

Consider `COc1ccc(S(=O)(=O)N(C)C[C@H]2Oc3ccc(NC(=O)Nc4ccc(C(F)(F)F)cc4)cc3C(=O)N([C@H](C)CO)C[C@H]2C)cc1`, for which the concentration at half-maximal activity (AC50) is 8.38 µM.

Take `CC1CCOC(=O)C=CC=CC(=O)OC2CC3OC4C5OC5(C)C(O)CC4(COC(=O)C1O)C2(C)C31CO1` (centres undefined): the AC50 was 0.0338 µM.

For `O=S(=O)(/C(=C\c1ccc(C(F)(F)F)cc1)c1nc2ccccc2[nH]1)c1ccccc1`, the half-maximal activity concentration (AC50) is 0.497 µM.

With `COc1ccc(C=Cc2ccc3ccccc3n2)c(OC)c1`, the AC50 was 3.48 µM.

With `CNc1c2cccc(C)c2nc2c(C(=O)NCCN(C)C)cccc12`, the AC50 is 0.583 µM.

On to `C[C@H](CO)N1C[C@H](C)[C@H](CN(C)S(=O)(=O)c2ccc([N+](=O)[O-])cc2)OCc2ccccc2-c2c(n(C)c3ccccc23)C1=O`, for which the concentration at half-maximal activity (AC50) was 9.88 µM.

`CCCn1c(NC(=O)c2cccc(S(=O)(=O)N3CCCC3)c2)nc2ccccc21`: the concentration at half-maximal activity (AC50) was 2.61 µM.

In the case of `NC(=O)c1c(Br)n(C2OC(CO)C(O)C2O)c2ncnc(N)c12` (centres undefined), the AC50 is 1.5 µM.

For the compound `CC(NCC(O)COCCC12CC3CC(CC(C3)C1)C2)c1ccccc1` (centres undefined), the concentration at half-maximal activity (AC50) was 4.1 µM.

In the case of `O=C(Cc1ccccc1)N1CC[C@@H]2[C@H]1c1cc(C#Cc3cccc(F)c3)ccc1N[C@@H]2CO`, the AC50 is 6.03 µM.

For `COc1ccc(S(=O)(=O)Nc2ccc3c(c2)C(=O)N([C@@H](C)CO)C[C@@H](C)[C@@H](CN(C)Cc2ccc(C(F)(F)F)cc2)OCCCC[C@@H](C)O3)cc1`, the AC50 is > 20 µM (inactive).

Take `C[C@@H]1C[C@@H]([C@H](O)CC2CC(=O)NC(=O)C2)C(=O)[C@@H](C)C1`: the half-maximal activity concentration (AC50) is 0.199 µM.

`OC(c1cc(-c2cccc(Cl)c2)nc2ccccc12)C1CCCCN1` (centres undefined): the concentration at half-maximal activity (AC50) was 2.26 µM.

For `C[C@H]1CN([C@@H](C)CO)C(=O)c2c(c3ccccc3n2C)-c2ccccc2CO[C@H]1CN(C)C(=O)Nc1cccc(C(F)(F)F)c1`, the AC50 was > 20 µM (inactive).

For `CC12CCC3C(CCC4(O)CC(O)CCC34C=NO)C1(O)CCC2C1=COC(=O)C1` (centres undefined), the AC50 was 0.6 µM.

Turning to `CCS(=O)(=O)N1[C@H](CO)[C@@H](c2ccc(C#Cc3ccccc3F)cc2)[C@@H]1C#N`, the AC50 is 7.11 µM.

Regarding `NC(=NCCCCCCN=C(N)/N=C(\N)Nc1ccc(Cl)cc1)/N=C(\N)Nc1ccc(Cl)cc1`, the AC50 was 10.5 µM.

In the case of `COc1ccc(S(=O)(=O)Nc2ccc3c(c2)C(=O)N([C@H](C)CO)C[C@@H](C)[C@H](CN(C)Cc2ccc(C(F)(F)F)cc2)OCCCC[C@@H](C)O3)cc1`, the AC50 is 8.15 µM.

`C[C@@H]1CN([C@@H](C)CO)C(=O)c2c(c3ccccc3n2C)-c2ccccc2CO[C@H]1CN(C)Cc1cccc(C(F)(F)F)c1`: the concentration at half-maximal activity (AC50) is 6.02 µM.

Turning to `COc1ccc(-c2ccc([C@H]3[C@@H](C#N)N(C(=O)c4cccc(F)c4)[C@H]3CO)cc2)cc1`, the AC50 is > 22 µM (inactive).

Consider `C[C@@H]1CN([C@@H](C)CO)C(=O)c2c(c3ccccc3n2C)-c2ccccc2CO[C@@H]1CN(C)C(=O)c1cc(Cl)cc(Cl)c1`, for which the AC50 is > 20 µM (inactive).

With `C=C1CC(Cn2cc(Br)c(=O)[nH]c2=O)(c2ccc(-c3ccccc3)cc2)OC1=O` (centres undefined), the AC50 was 1.07 µM.

Take `COC(=O)c1nn(-c2ccc(-c3ccccc3)cc2)cc1O`: the AC50 was 8.92 µM.

`Cc1ccc(-c2cc(C(=O)N(C)CC(=O)Nc3ccccc3Br)c3ccccc3n2)o1`: the AC50 is 11.1 µM.

Take `N#C[C@H]1[C@H](c2ccc(C#Cc3ccccc3F)cc2)[C@H](CO)N1C(=O)C1CC1`: the AC50 was 11.3 µM.

On to `O=C(Nc1nc2ccccc2s1)c1ccc(OCC2CCCO2)cc1` (centres undefined), for which the half-maximal activity concentration (AC50) is 10.2 µM.

As to `COC(=O)C1=C(C(=O)OC)C2OC1c1cc3ccccc3cc12`, the concentration at half-maximal activity (AC50) is 0.519 µM.

Take `Cc1ccc(S(=O)(=O)C=CS(=O)(=O)c2ccc(C)cc2)cc1`: the half-maximal activity concentration (AC50) is 1.22 µM.

Regarding `O=C(Nc1ccc(C(F)(F)F)cc1)Nc1ccc2c(c1)[C@H]1C[C@@H](CC(=O)N3CCc4ccccc4C3)O[C@@H](CO)[C@H]1O2`, the AC50 was > 7 µM (inactive).

For the compound `COc1ccc(CN(CCC(c2ccc(F)cc2)C2CCOC(C)(C)C2)C(=O)c2ccco2)cc1` (centres undefined), the AC50 is 11.3 µM.

In the case of `COc1cccc(/C=N/Nc2ccc(C(=O)O)cc2)c1O`, the half-maximal activity concentration (AC50) is 2.02 µM.

Turning to `CC(=O)O[C@@H]1C[C@@]2(C)[C@H](c3ccoc3)C[C@H]3O[C@]32[C@]2(C)C(=O)C(=O)C3C(C)(C)C(=O)C=C[C@]3(C)C12` (some centres undefined), the concentration at half-maximal activity (AC50) was 1.22 µM.

As to `COc1ccc(CN2CC3(CN(C(=O)Cc4ccccc4)C3)c3c([nH]c4cc(OC)ccc34)[C@@H]2CO)cc1`, the AC50 was > 20 µM (inactive).

Consider `Cc1ccc(S(=O)(=O)CCC(=O)N(CCCN2CCOCC2)c2nc3ccccc3s2)cc1`, for which the AC50 is 7.38 µM.

`N#C[C@@H]1[C@H](c2ccc(C#Cc3ccc(F)cc3)cc2)[C@@H](CO)N1C(=O)C1CCC1`: the AC50 is 10.7 µM.

As for `CC(C)Cc1ccc(C(C)CC2=CCC(CN(C)C)C2=O)cc1` (centres undefined), the AC50 is 2.41 µM.

As for `O=c1cc(-c2ccc(O)cc2)oc2ccc3ccccc3c12`, the concentration at half-maximal activity (AC50) was 1.67 µM.

As for `c1ccc(-c2nnc(-c3ccccn3)nn2)nc1`, the AC50 was 11.4 µM.

Turning to `COC(=O)C12OCC34C(CC5C(C)=C(O)C(=O)CC5(C)C3C(O)C1O)OC(=O)C(OC(=O)C=C(C)C)C24` (centres undefined), the AC50 was 0.671 µM.

Regarding `CCCNC(=O)N1[C@H](C#N)[C@H](c2ccc(C#Cc3cccc(F)c3)cc2)[C@H]1CO`, the concentration at half-maximal activity (AC50) was 8.92 µM.

`O=C(C1CCCC1)N1CC(=O)N2[C@@H](CO)[C@@H](c3ccc(C#CCc4ccccc4)cc3)[C@@H]2C1`: the AC50 was 1.7 µM.

`Cc1noc(C)c1S(=O)(=O)N(C)C[C@@H]1OCc2ccccc2-c2c(n(C)c3ccccc23)C(=O)N([C@@H](C)CO)C[C@@H]1C`: the half-maximal activity concentration (AC50) was 10.2 µM.

In the case of `N#C[C@@H]1[C@H](c2ccc(C#CC3CCCCC3)cc2)[C@H](CO)N1C(=O)Nc1ccc(F)cc1`, the AC50 is > 20 µM (inactive).

`COC(=O)C1=C(C)NC(C)=C(C(=O)OCCCN2CCC(c3ccccc3)(c3ccccc3)CC2)[C@H]1c1cccc([N+](=O)[O-])c1`: the half-maximal activity concentration (AC50) is 4.12 µM.

With `Clc1ccc(CSC(Cn2ccnc2)c2ccc(Cl)cc2Cl)cc1` (centres undefined), the AC50 was > 20 µM (inactive).

For the compound `Cc1ccsc1C(=O)OCC(=O)c1cc(C)n(CC2CCCO2)c1C` (centres undefined), the half-maximal activity concentration (AC50) is 0.0426 µM.

In the case of `COc1cc(C(=O)CCN2CCC(c3ccccc3)C2)cc(OC)c1OC` (centres undefined), the AC50 is 4.66 µM.

On to `C[n+]1c2n(c3ccccc31)N=C(c1ccc(-c3ccccc3)cc1)CS2`, for which the AC50 is 1.25 µM.

Take `COc1ccc2cc(-c3cc(C(=O)O)c4ccccc4n3)ccc2c1`: the AC50 was 6.93 µM.

For the compound `CC1=CC(C)(C)N=C(Nc2nc(C)c3cc(C)cc(C)c3n2)N1`, the AC50 was 2.49 µM.

As for `N#C[C@@H]1[C@H](c2ccc(C#Cc3ccccc3F)cc2)[C@@H](CO)N1C(=O)C1CC1`, the half-maximal activity concentration (AC50) is 3.39 µM.

As to `CC(C)(C)CC(C)(C)c1ccc(OCCOCC[N+](C)(C)Cc2ccccc2)cc1`, the concentration at half-maximal activity (AC50) was 1.75 µM.

Regarding `C[C@@H]1CN([C@@H](C)CO)C(=O)c2c(c3ccccc3n2C)-c2ccccc2CO[C@H]1CN(C)S(=O)(=O)c1ccc([N+](=O)[O-])cc1`, the AC50 is > 20 µM (inactive).

Take `Oc1c(Cl)cc(Cl)cc1Sc1cc(Cl)cc(Cl)c1O`: the AC50 is 3.41 µM.

Regarding `O=C(COc1cccnc1[N+](=O)[O-])c1ccc(Cl)s1`, the AC50 is 4.71 µM.

As for `O=C1c2ccccc2C(=O)C1c1ccc2ccccc2n1`, the AC50 is 10.6 µM.

Consider `C[C@H]1CN([C@@H](C)CO)C(=O)c2c(c3ccccc3n2C)-c2ccccc2CO[C@@H]1CN(C)Cc1cccc(C(F)(F)F)c1`, for which the AC50 is 8.42 µM.

Consider `C[C@H]1CN([C@@H](C)CO)C(=O)c2cccc(NC(=O)Nc3ccc(F)cc3)c2O[C@H]1CN(C)S(=O)(=O)c1ccc(Cl)cc1`, for which the half-maximal activity concentration (AC50) was 5.13 µM.

As for `CC(C)(C)NCC(=Cc1ccccc1)C(=O)c1ccccc1`, the AC50 is 2.84 µM.

As for `COc1ccc(S(=O)(=O)Nc2ccc3c(c2)C(=O)N([C@H](C)CO)C[C@@H](C)[C@@H](CN(C)Cc2ccc(C(F)(F)F)cc2)OCCCC[C@H](C)O3)cc1`, the AC50 is > 20 µM (inactive).

For `Cc1ccc(OC(=O)N(C)C[C@@H]2OCc3ccccc3-c3c(n(C)c4ccccc34)C(=O)N([C@@H](C)CO)C[C@H]2C)cc1`, the half-maximal activity concentration (AC50) was 7.67 µM.

Regarding `C[C@H](CO)N1C[C@H](C)[C@@H](CN(C)Cc2ccc(Oc3ccccc3)cc2)OCc2ccccc2-c2ccccc2C1=O`, the concentration at half-maximal activity (AC50) is 7.02 µM.

For `C[C@@H]1CN([C@@H](C)CO)S(=O)(=O)c2ccc(C#Cc3ccccc3F)cc2O[C@H]1CN(C)C(=O)Cc1cccnc1`, the AC50 is > 20 µM (inactive).

On to `N#C[C@@H]1[C@H](c2ccc(C#CC3CCCCC3)cc2)[C@@H](CO)N1S(=O)(=O)c1ccccc1`, for which the concentration at half-maximal activity (AC50) was 7.1 µM.

Regarding `CC(C)(C)CC(C)(C)c1ccc(O)c(Cc2ccc(Cl)cc2Cl)c1`, the half-maximal activity concentration (AC50) was 5.5 µM.

`Clc1ccc(C(Cn2ccnc2)OCc2ccsc2Cl)c(Cl)c1` (centres undefined): the AC50 was 4.05 µM.

With `CC[C@@]1(O)C(=O)OCc2c1cc1n(c2=O)Cc2cc3ccccc3nc2-1`, the concentration at half-maximal activity (AC50) is 0.531 µM.

Regarding `CN1C(=O)/C(=N\OC(=O)c2cccc3ccccc23)c2ccccc21`, the AC50 is 1.85 µM.

Turning to `O=C1C=CC(=O)c2c(O)c(N3CCN(CCOCCO)CC3)c(Br)c(O)c21`, the AC50 was 1.33 µM.
